Assays:
full-length human BTK = full-length human BTK (Homo sapiens (Human), UniProt Q06187); assay: BTK IC50 Enzyme Assay (microfluidic off-chip mobility shift kinase assay); type: biochemical; conditions: Btk Enzymatic IC50 Assay, 90 min at 27 C;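 also: Read-out separates phosphorylated peptide product from substrate by their charge-to-mass difference, with IC50 fitted from log inhibitor concentration against percent enzyme activity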
Btk = Btk (Homo sapiens (Human), UniProt Q06187); assay: Btk PBMC IC50 Cell Assay (anti-IgM-induced CD69 expression on B cells); type: cell-based; conditions: anti-IgM-induced CD69 expression on CD19 positive cells in human PBMCs;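 also: freshly isolated human PBMCs, IC50 from concentration-response of the share of CD19+ cells expressing CD69 after anti-IgM BCR stimulation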
Sequence of Btk (Q06187 whole entry): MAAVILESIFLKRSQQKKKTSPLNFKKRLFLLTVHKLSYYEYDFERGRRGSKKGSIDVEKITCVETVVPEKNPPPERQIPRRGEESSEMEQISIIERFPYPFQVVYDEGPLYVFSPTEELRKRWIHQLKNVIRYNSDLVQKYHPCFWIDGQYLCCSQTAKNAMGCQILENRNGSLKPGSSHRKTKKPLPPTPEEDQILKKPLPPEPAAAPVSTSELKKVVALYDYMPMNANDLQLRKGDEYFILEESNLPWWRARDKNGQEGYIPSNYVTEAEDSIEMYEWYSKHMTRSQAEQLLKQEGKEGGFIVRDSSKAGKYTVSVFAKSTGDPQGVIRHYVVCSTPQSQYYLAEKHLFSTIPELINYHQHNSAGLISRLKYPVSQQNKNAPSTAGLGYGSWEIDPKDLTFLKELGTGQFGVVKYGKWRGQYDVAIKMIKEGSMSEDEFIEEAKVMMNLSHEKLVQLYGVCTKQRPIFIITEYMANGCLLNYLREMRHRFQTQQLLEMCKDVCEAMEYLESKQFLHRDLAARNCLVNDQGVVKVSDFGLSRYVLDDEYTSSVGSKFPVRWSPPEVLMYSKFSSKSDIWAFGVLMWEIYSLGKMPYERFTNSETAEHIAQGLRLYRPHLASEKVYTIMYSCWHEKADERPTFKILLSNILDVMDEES

Sequence of full-length human BTK (Q06187 whole entry): as above

SMILES | IC50 (full-length human BTK) [nM] | IC50 (Btk) [nM]
Cn1cc(-c2nc3c(-c4ccc5c(c4)CCCCC5NC(=O)c4cc(C5(C)CC5)on4)ccnc3[nH]2)cn1 (stereo not drawn) [Compound 41, 5-(1-Methyl-cyclopropyl)-isoxazole-3-carboxylic acid {2-[2-(1-methyl-1H-pyrazol-4-yl)-3H-imidazo[4,5-b]pyridin-7-yl]-6,7,8,9-tetrahydro-5H-benzocyclohepten-5-yl}-amide] | < 1 | 1 to 10
Cc1nn(C(C)C)cc1-c1nc2c(-c3ccc4c(c3)CCCCC4NC(=O)c3noc(C(C)(C)C)n3)ccnc2[nH]1 (stereo not drawn) [Compound 58, 5-tert-Butyl-[1,2,4]oxadiazole-3-carboxylic acid {2-[2-(1-isopropyl-3-methyl-1H-pyrazol-4-yl)-3H-imidazo[4,5-b]pyridin-7-yl]-6,7,8,9-tetrahydro-5H-benzocyclohepten-5-yl}-amide] | < 1 | 1 to 10
Cc1nn(C)c(C)c1-c1nc2c(-c3ccc4c(c3)CCCC[C@@H]4NC(=O)c3noc(C4(C)CC4)n3)ccnc2[nH]1 [Compound 13, 5-(1-Methyl-cyclopropyl)-[1,2,4]oxadiazole-3-carboxylic acid {(S)-2-[2-(1,3,5-trimethyl-1H-pyrazol-4-yl)-3H-imidazo[4,5-b]pyridin-7-yl]-6,7,8,9-tetrahydro-5H-benzocyclohepten-5-yl}-amide] | 1 to 10 | 10 to 100
Cn1cc(-c2nc3c(-c4ccc5c(c4)OCCC[C@@H]5NC(=O)c4nc(C(C)(C)C)no4)ccnc3[nH]2)cn1 [Compound 45, 3-tert-Butyl-[1,2,4]oxadiazole-5-carboxylic acid {(S)-8-[2-(1-methyl-1H-pyrazol-4-yl)-3H-imidazo[4,5-b]pyridin-7-yl]-2,3,4,5-tetrahydro-benzo[b]oxepin-5-yl}-amide] | < 1 | 1 to 10
Cc1c(-c2nc3c(-c4ccc5c(c4)CCCC[C@@H]5NC(=O)c4nc(C5(C)CC5)no4)ccnc3[nH]2)cnn1C(C)C [Compound 28, 3-(1-Methyl-cyclopropyl)-[1,2,4]oxadiazole-5-carboxylic acid {(S)-2-[2-(1-isopropyl-5-methyl-1H-pyrazol-4-yl)-3H-imidazo[4,5-b]pyridin-7-yl]-6,7,8,9-tetrahydro-5H-benzocyclohepten-5-yl}-amide] | > 100 | > 100
Cc1nn(C)c(C)c1-c1nc2nccc(-c3ccc4c(c3)CCCC[C@@H]4NC(=O)c3cc(C(C)(C)C)on3)c2[nH]1 [Compound 71, 5-tert-butyl-N-[(5S)-2-[2-(1,3,5-trimethyl-1H-pyrazol-4-yl)-1H-imidazo[4,5-b]pyridin-7-yl]-6,7,8,9-tetrahydro-5H-benzo[7]annulen-5-yl]-1,2-oxazole-3-carboxamide] | 1 to 10 | 10 to 100

Second part, the compound after the results:

IC50 (full-length human BTK) [nM] | IC50 (Btk) [nM] | SMILES
1 to 10 | 10 to 100 | Cn1cc(-c2nc3c(-c4ccc5c(c4)CCCC5NC(=O)c4nnc(C(C)(C)C)o4)ccnc3[nH]2)cn1 (stereo not drawn) [Compound 104, 5-tert-Butyl-[1,3,4]oxadiazole-2-carboxylic acid {6-[2-(1-methyl-1H-pyrazol-4-yl)-3H-imidazo[4,5-b]pyridin-7-yl]-1,2,3,4-tetrahydro-naphthalen-1-yl}-amide]
< 1 | 1 to 10 | CC(C)n1cc(-c2nc3c(-c4ccc5c(c4)CCCCC5NC(=O)c4nc(C(C)(C)C)no4)ccnc3[nH]2)cn1 (stereo not drawn) [Compound 106, 3-tert-Butyl-[1,2,4]oxadiazole-5-carboxylic acid {2-[2-(1-isopropyl-1H-pyrazol-4-yl)-3H-imidazo[4,5-b]pyridin-7-yl]-6,7,8,9-tetrahydro-5H-benzocyclohepten-5-yl}-amide]
< 1 | 1 to 10 | CCn1ncc(-c2nc3c(-c4ccc5c(c4)CCCCC5NC(=O)c4nc(C(C)(C)C)no4)ccnc3[nH]2)c1C (stereo not drawn) [Compound 85, 3-tert-butyl-N-{2-[2-(1-ethyl-5-methyl-1H-pyrazol-4-yl)-3H-imidazo[4,5-b]pyridin-7-yl]-6,7,8,9-tetrahydro-5H-benzo[7]annulen-5-yl}-1,2,4-oxadiazole-5-carboxamide]
